Measurements as given in US8058433B2, “Crystalline pharmaceutical” (Abbott Laboratories, priority 2000, dated 2011).

Test: Hygroscopicity of the crystal form
Format: physicochemical
Details: unless maintained at about 0% relative humidity the form comprises greater than 0.5 molecules of water per molecule of lopinavir
Source text: The Type I hydrated crystal form of lopinavir comprising about 0.5 molecules of water per molecule of lopinavir is hygroscopic. Therefore, unless maintained under conditions of about 0% relative humidity, the Type I hydrated crystal form of lopinavir comprises greater than 0.5 molecules of water per molecule of lopinavir. If a Type I hydrated crystal form of lopinavir is dehydrated to below about 0.5 molecules of water per molecule of lopinavir, amorphous lopinavir is obtained.
The Type I crystal form of lopinavir comprising about 0.5 molecules of water per molecule of lopinavir has the powder X-ray diffraction pattern which appears in FIG. 1. The Type I crystal form of lopinavir comprising about 0.5 molecules of water per molecule of lopinavir has the solid state ^13C nuclear magnetic resonance spectrum, FT near infrared spectrum and FT mid infrared spectrum which appear in FIGS. 2, 3 and 4, respectively. The sample from which the infrared and nuclear magnetic resonance spectra were obtained may contain somewhat more than 0.5 molecules of water per molecule of lopinavir due to the hygroscopicity of the crystal form when the level of hydration is about 0.5 molecules of water per molecule of lopinavir.

- hygroscopicity: hygroscopic
SMILES: Cc1cccc(C)c1OCC(=O)N[C@@H](Cc1ccccc1)[C@@H](O)C[C@H](Cc1ccccc1)NC(=O)[C@H](C(C)C)N1CCCNC1=O
